Assay [1] addresses tyrosine phenol-lyase (wild type TPL) (Citrobacter freundii, UniProt P31013). Put plainly: absorbance titration at […] nm. In kind it is binding.
The target in assay [2] is T1, tyrosine phenol-lyase (M379A TPL) (Citrobacter freundii, UniProt P31013, M379A). Put plainly: X-ray crystal structure. In kind it is binding.
Assay [3] addresses T1, tyrosine phenol-lyase (M379A TPL). Put plainly: LDH-coupled steady-state kinetics of purified enzyme. In kind it is biochemical.

These results are taken from paper PMC9262865 (Chembiochem, 2022).

With `CSCC[C@H](N)C(=O)O` [L-methionine], the Kd in assay [1] came to 790 µM; in assay [2], 1740 µM. For `N[C@@H](Cc1ccc(O)cc1)C(=O)O` [compound 1, L-tyrosine], in assay [3], the “M379A TPL / k cat/K M, M^-1 s^-1” value is reported as 148 M^-1 s^-1 (kcat/KM). The same measure, in the same setting: in the case of `N[C@@H](Cc1ccc(O)c(F)c1)C(=O)O` [compound 3, 3-F-L-tyrosine] it was 774 M^-1 s^-1 (kcat/KM).
